Test results taken from ChEMBL document CHEMBL4665787, “Bifunctional and Unusual Amino Acid β- or γ-Ester Prodrugs of Nucleoside Analogues for Improved Affinity to ATB and Enhanced Metabolic Stability: An Application to Floxuridine” (J Med Chem, 2020).
Active and inactive are the calls of the source. The calls are words filed in the database; no cut-off is given here.

Tests used:
[1] = Drug uptake in MDCK cells incubated for 10 mins by HPLC analysis; type: ADME, cell-based, Canis lupus familiaris; conditions: dog, 500 µM, dose 0.5 mM
[2] = Half life of compound in human MIA PaCa-2 cell homogenate; type: ADME, tissue-based
[3] = molecular target: T1, Sodium- and chloride-dependent neutral and basic amino acid transporter B(0+) (Homo sapiens) (UniProt Q9UN76); experiment: Substrate activity at SLC6A14 (unknown origin) expressed in Xenopus laevis oocytes assessed as increase in ABT0+ mediated drug uptake at 1 mM in presence of Na+ ion by HPLC analysis; type: cell-based; conditions: Oocyte
T1 sequence (whole entry): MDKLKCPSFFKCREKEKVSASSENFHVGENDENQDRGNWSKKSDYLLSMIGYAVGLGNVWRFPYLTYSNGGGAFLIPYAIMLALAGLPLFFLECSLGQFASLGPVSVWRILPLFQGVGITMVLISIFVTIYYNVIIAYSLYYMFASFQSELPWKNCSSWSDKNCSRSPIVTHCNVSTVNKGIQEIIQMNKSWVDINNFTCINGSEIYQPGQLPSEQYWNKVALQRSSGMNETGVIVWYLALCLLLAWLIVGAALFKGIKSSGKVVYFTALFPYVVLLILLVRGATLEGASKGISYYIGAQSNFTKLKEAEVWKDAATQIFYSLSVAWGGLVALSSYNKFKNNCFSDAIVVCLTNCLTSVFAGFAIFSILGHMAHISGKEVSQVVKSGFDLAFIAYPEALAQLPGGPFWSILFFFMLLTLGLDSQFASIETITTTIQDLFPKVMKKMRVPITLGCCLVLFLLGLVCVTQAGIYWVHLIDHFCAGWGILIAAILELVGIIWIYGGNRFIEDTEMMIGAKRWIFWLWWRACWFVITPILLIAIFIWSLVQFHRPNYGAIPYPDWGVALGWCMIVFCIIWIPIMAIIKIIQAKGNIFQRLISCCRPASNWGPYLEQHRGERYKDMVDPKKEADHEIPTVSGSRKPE

[4] = molecular target: T1, Sodium- and chloride-dependent neutral and basic amino acid transporter B(0+) (Homo sapiens); experiment: Substrate activity at SLC6A14 (unknown origin) expressed in Xenopus laevis oocytes assessed as increase in ABT0+ mediated drug uptake at 1 mM in presence of Cl- ion by HPLC analysis; type: cell-based; conditions: Oocyte
[5] = Half life of compound in human ZR-75-1 cell homogenate; type: ADME, tissue-based
[6] = Selectivity ratio of substrate activity at SLC6A14 (unknown origin) expressed in Xenopus laevis oocytes assessed as ABT0+ mediated drug uptake to drug uptake in Xenopus laevis oocytes; parameters: species or system Oocyte
[7] = tested on: ZR-75-1; experiment: Potency index, ratio of FUdR GI50 to test compound GI50 for growth inhibition of human ZR-75-1 cells; type: functional
[8] = Selectivity ratio of substrate activity at PEPT1 (unknown origin) expressed in MDCK cells assessed as PEPT1 mediated drug uptake to drug uptake in MDCK cells
[9] = tested on: MIA PaCa-2; experiment: Potency index, ratio of FUdR GI50 to test compound GI50 for growth inhibition of human MIA-PaCa-2 cells; type: functional
[10] = molecular target: T2, Sodium- and chloride-dependent neutral and basic amino acid transporter B(0+) (Homo sapiens, UniProt Q9UN76); experiment: Substrate activity at SLC6A14 (unknown origin) expressed in Xenopus laevis oocytes assessed as ABT0+ mediated drug uptake at 0.5 mM incubated for 10 mins by HPLC analysis; type: ADME, cell-based; conditions: oocyte, 500 µM
T2 sequence (Q9UN76 whole entry): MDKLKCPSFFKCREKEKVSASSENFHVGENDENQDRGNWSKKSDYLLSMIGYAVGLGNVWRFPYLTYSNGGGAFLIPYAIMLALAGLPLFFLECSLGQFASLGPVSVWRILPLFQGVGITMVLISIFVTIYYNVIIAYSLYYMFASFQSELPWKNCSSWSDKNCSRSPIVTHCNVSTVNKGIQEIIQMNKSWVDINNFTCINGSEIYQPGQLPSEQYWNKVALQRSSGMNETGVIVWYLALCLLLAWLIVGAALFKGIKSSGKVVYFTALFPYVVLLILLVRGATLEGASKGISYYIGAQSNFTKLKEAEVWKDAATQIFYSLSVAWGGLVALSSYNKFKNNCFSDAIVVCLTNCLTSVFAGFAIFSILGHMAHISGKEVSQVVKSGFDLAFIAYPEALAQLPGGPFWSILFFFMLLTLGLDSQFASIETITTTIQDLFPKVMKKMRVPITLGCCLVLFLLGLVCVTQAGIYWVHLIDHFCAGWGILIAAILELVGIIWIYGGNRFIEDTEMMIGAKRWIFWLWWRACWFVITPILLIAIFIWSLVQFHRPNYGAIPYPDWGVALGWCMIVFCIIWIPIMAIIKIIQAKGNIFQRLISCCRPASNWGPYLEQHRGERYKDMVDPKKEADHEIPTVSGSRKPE

[11] = Half life of compound in PBS buffer at pH 7.4 at 200 uM by HPLC analysis; type: physicochemical
[12] = molecular target: T3, Solute carrier family 15 member 1 (Homo sapiens, UniProt P46059); experiment: Substrate activity at PEPT1 (unknown origin) expressed in MDCK cells assessed as PEPT1 mediated drug uptake at 0.5 mM incubated for 10 mins by HPLC analysis; type: ADME, cell-based; conditions: 500 µM
T3 sequence (P46059 whole entry): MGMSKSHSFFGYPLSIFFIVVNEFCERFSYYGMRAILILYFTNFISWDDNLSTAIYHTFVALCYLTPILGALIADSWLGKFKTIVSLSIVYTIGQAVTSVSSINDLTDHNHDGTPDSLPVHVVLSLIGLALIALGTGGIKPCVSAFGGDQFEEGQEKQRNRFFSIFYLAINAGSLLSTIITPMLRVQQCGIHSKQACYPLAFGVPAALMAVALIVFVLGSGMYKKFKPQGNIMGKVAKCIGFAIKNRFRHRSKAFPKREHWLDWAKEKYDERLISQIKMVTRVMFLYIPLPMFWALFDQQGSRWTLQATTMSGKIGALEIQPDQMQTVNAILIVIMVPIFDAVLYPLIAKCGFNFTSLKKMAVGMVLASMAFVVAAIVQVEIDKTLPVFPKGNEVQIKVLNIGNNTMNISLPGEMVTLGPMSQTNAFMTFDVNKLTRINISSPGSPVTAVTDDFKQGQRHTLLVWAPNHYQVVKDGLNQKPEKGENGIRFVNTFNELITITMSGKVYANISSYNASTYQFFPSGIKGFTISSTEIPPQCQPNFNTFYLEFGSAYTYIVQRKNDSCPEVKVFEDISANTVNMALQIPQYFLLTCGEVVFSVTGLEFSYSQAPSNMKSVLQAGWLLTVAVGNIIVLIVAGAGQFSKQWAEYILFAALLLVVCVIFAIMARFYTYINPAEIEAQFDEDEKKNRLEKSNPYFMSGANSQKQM

[13] = molecular target: T2, Sodium- and chloride-dependent neutral and basic amino acid transporter B(0+); experiment: Substrate activity at SLC6A14 (unknown origin) expressed in Xenopus laevis oocytes assessed as inhibition of glycine uptake incubated for 10 mins by HPLC/MS/MS analysis; type: cell-based, Oocyte
[14] = Half life in rat plasma at 200 uM measured up to 120 mins by HPLC-MS/MS analysis; type: ADME, cell-free
[15] = molecular target: T3, Solute carrier family 15 member 1; experiment: Substrate activity at PEPT1 (unknown origin) expressed in MDCK cells assessed as inhibition of gly-sar uptake incubated for 10 mins by HPLC/MS/MS analysis; type: cell-based
[16] = Half life of compound in human MDA-MB-231 cell homogenate; type: ADME, tissue-based
[17] = tested on: thymidine phosphorylase; experiment: Half life of compound in thymidine phosphorylase buffer at 300 uM by HPLC analysis; type: physicochemical
[18] = molecular target: T1, Sodium- and chloride-dependent neutral and basic amino acid transporter B(0+) (Homo sapiens); experiment: Substrate activity at SLC6A14 (unknown origin) expressed in Xenopus laevis oocytes assessed as inhibition of drug uptake at 0.5 mM incubated for 10 mins in presence of glycine by HPLC analysis relative to control; type: cell-based; conditions: Oocyte
[19] = tested on: MDA-MB-231; experiment: Potency index, ratio of FUdR GI50 to test compound GI50 for growth inhibition of human MDA-MB-231 cells; type: functional
[20] = Drug uptake in Xenopus laevis oocytes at 0.5 mM incubated for 10 mins by HPLC analysis; type: ADME, cell-based; conditions: oocyte, 500 µM
[21] = compound: N[C@@H](CC(=O)OC[C@H]1O[C@@H](n2cc(F)c(=O)[nH]c2=O)C[C@@H]1O)C(=O)O; experiment: (§1) Substrate activity at SLC6A14 (unknown origin) expressed in Xenopus laevis oocytes assessed as Km by measuring ABT0+ mediated drug uptake incubated for 10 mins in presence of glycine by HPLC based Michaelis-Menten analysis; type: cell-based; conditions: Homo sapiens, Oocyte
[22] = compound: CC(C)[C@H](N)C(=O)OC[C@H]1O[C@@H](n2cc(F)c(=O)[nH]c2=O)C[C@@H]1O; experiment: as §1; type: cell-based; conditions: Homo sapiens, Oocyte
[23] = compound: N[C@@H](CCC(=O)OC[C@H]1O[C@@H](n2cc(F)c(=O)[nH]c2=O)C[C@@H]1O)C(=O)O; experiment: as §1; type: cell-based; conditions: Homo sapiens, Oocyte
[24] = compound: N[C@@H](CC(=O)OC[C@H]1O[C@@H](n2cc(F)c(=O)[nH]c2=O)C[C@@H]1O)C(=O)O; experiment: (§2) Substrate activity at SLC6A14 (unknown origin) expressed in Xenopus laevis oocytes assessed as Vmax by measuring ABT0+ mediated drug uptake incubated for 10 mins in presence of glycine by HPLC based Michaelis-Menten analysis; type: cell-based; conditions: Homo sapiens, Oocyte
[25] = compound: CC(C)[C@H](N)C(=O)OC[C@H]1O[C@@H](n2cc(F)c(=O)[nH]c2=O)C[C@@H]1O; experiment: as §2; type: cell-based; conditions: Homo sapiens, Oocyte
[26] = compound: N[C@@H](CCC(=O)OC[C@H]1O[C@@H](n2cc(F)c(=O)[nH]c2=O)C[C@@H]1O)C(=O)O; experiment: as §2; type: cell-based; conditions: Homo sapiens, Oocyte

N[C@@H](CCC(=O)OC[C@H]1O[C@@H](n2cc(F)c(=O)[nH]c2=O)C[C@@H]1O)C(=O)O
Drug uptake [1]: < 0.04 nmol/mg/min | half-life [2]: 0.335 h | Activity [3]: Active | Activity [4]: Active | half-life [5]: 0.205 h | Ratio [6]: 6.23 | RatioGI50 [7]: 7 | Ratio [8]: 1 | RatioGI50 [9]: 7 | Drug uptake [10]: 2.12 nmol/mg/min | half-life at 200 µM [11]: 4.3 h | Drug uptake [12]: < 0.04 nmol/mg/min | IC50 [13]: 1.13 mM | half-life at 200 µM [14]: 1.91 h | IC50 [15]: 11.5 mM | half-life [16]: 0.288 h | half-life at 300 µM [17]: 4.27 h | inhibition [18]: 50% | RatioGI50 [19]: 7 | Drug uptake [20]: 0.35 nmol/mg/min

B1: Sodium- and chloride-dependent neutral and basic amino acid transporter B(0+) (Homo sapiens), Q9UN76 (protein)
chain: MDKLKCPSFFKCREKEKVSASSENFHVGENDENQDRGNWSKKSDYLLSMIGYAVGLGNVWRFPYLTYSNGGGAFLIPYAIMLALAGLPLFFLECSLGQFASLGPVSVWRILPLFQGVGITMVLISIFVTIYYNVIIAYSLYYMFASFQSELPWKNCSSWSDKNCSRSPIVTHCNVSTVNKGIQEIIQMNKSWVDINNFTCINGSEIYQPGQLPSEQYWNKVALQRSSGMNETGVIVWYLALCLLLAWLIVGAALFKGIKSSGKVVYFTALFPYVVLLILLVRGATLEGASKGISYYIGAQSNFTKLKEAEVWKDAATQIFYSLSVAWGGLVALSSYNKFKNNCFSDAIVVCLTNCLTSVFAGFAIFSILGHMAHISGKEVSQVVKSGFDLAFIAYPEALAQLPGGPFWSILFFFMLLTLGLDSQFASIETITTTIQDLFPKVMKKMRVPITLGCCLVLFLLGLVCVTQAGIYWVHLIDHFCAGWGILIAAILELVGIIWIYGGNRFIEDTEMMIGAKRWIFWLWWRACWFVITPILLIAIFIWSLVQFHRPNYGAIPYPDWGVALGWCMIVFCIIWIPIMAIIKIIQAKGNIFQRLISCCRPASNWGPYLEQHRGERYKDMVDPKKEADHEIPTVSGSRKPE
Km [21]: 35.6 µM | Km [22]: 54.6 µM | Km [23]: 84 µM | Vmax [24]: 201 pmol/mg/min | Vmax [25]: 278 pmol/mg/min | Vmax [26]: 235 pmol/mg/min
